Patent US10072021B2, “Compound for inhibiting binding between DX2 protein and P14/ARF protein, and pharmaceutical composition for treating or preventing cancer disease containing same as effective ingredient” (PUSAN NATIONAL UNIVERSITY INDUSTRY-UNIVERSITY COOPERATION …, priority 2014, dated 2018)
Entries after “also recorded” stand apart in the source; their conditions may differ.

How the values were obtained:
[1] = biological target: T1, DX2-p14/ARF interaction (Homo sapiens, UniProt Q13155); assay: Immunoprecipitation analysis of DX2-p14/ARF interaction in cotransfected 293 cells; type: cell-based; settings: MG132, SLCB050 10 μM, 6 hours, IP with Myc antibodies
T1 construct: expressed in transfected cells; host or cells: 293 (HEK293) cells
T1 sequence (Q13155 1-251 isoform Q13155-2): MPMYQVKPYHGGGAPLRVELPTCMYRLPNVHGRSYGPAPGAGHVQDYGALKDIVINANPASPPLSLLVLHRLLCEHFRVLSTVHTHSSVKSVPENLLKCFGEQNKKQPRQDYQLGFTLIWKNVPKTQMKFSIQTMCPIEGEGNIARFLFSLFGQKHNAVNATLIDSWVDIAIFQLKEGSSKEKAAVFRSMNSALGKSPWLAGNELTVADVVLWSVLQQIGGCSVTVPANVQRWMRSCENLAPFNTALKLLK
Experimental: (§1) Here, contransfected 293 cells were allowed to react with MG132 before immunoprecipitation analysis to prevent reduction of two proteins, and after performing SLCB050 treatment (10 μM, 6 hours), immunoprecipitation assay was performed on the cells by using Myc antibodies (DX2).
Here, 293 cells were transfected with indicating vectors for 24 hours and was allowed to react with MG132 and SLCB050 for 6 hours.
Immunoprecipitation (IP) assay was performed with cell lysate or recombinant protein with RIPA buffer. The whole lysates were incubated with suitable antibodies for 2 hours at a temperature of 4° C. for a reaction, and then, the mixtures were added with A/G-agarose beads-conjugated secondary antibody (Invitrogen, Carlsbad, Calif., USA) for 2 hours. After incubation for a reaction, the mixtures were washed using RIPA buffer twice, and precipitated proteins were determined by western blot analysis.

[2] = biological target: T2, DX2-AIMP2 binding (Homo sapiens, UniProt Q13155); assay: Protein binding assay using His-DX2 protein; settings: FIG. 2C
T2 sequence (Q13155 1-251 isoform Q13155-2): T1 sequence (Q13155 1-251 isoform Q13155-2)
Experimental: as §1
(§2) To address direct binding between the two proteins, agarose-bead conjugated GST (negative control) or GST-target protein was incubated with cell lysate or recombinant protein in radioimmunoprecipitation assay (RIPA) buffer (NaCl, 25 mM Tris-Cl, 1% NP-40, 1% sodium deoxycholate, 0.1% SDS, protease inhibitor mixture) for 1 hour at a temperature of 4° C. for a reaction.

[3] = tested on: p53-AIMP2 or DX2 binding; assay: GST pull-down assay, selectivity: p53-AIMP2 or DX2 binding; settings: FIG. 3B
From the text: (§3) Through GST pull-down assays, more specific binding inhibitors were selected among the previously screened candidate drugs as DX2-p14/ARF binding inhibitors. That is, a p14/ARF fragment (full-length) was ligated into EcoRI and Hind II sites of pGEX-TEV vector, which is a modified vector by adding a TEV protease cleavage site to pGEX-4T1. The recombinant proteins were then expressed in E. coli strain BL21(DE3) as GST-fusion proteins. The proteins were purified by glutathione affinity chromatography.
as §2

[4] = tested on: lung tumors of DK mice; assay: In vivo anticancer effect in DK mice (lung tumors)
Experimental: All experimental procedures using laboratory animals were approved by the animal care committee of Pusan National University. DX2 (C57/BL6) and K-RasLA2 (C57/BL6) mice were obtained from Dr. Kim, Sung-Hoon and Professor. Choi, Kang-Ryeol (Yonsei University), respectively, and double Tg mice were obtained by cross-breeding of DX2 and K-RasLA2 mice. Before experiment, all mice were maintained under temperature- and light-controlled conditions (20-23° C., 12 h/12 h light/dark cycle), and provided autoclaved food and water.
Every weeks, tumor volume and body weight were measured.
After dissection of mice, tissues were fixed using 10% formalin (in PBS) for 24 hours, and embedded in paraffin blocks according to a basic tissue processing procedure. For histological analysis, embedded tissues were cut for […] by Leica microtome (Wetzlar, Germany) and transferred onto adhesive-coated slides (Marienfeld laboratory glassware, Germany). After deparaffin and rehydration, sections were then stained with H&E for routine examination.
For IHC staining, rehydrated tissue sections were incubated with antibodies to Ki-67 (Abcam, ab15580), pan-keratin (Sigma, C2931), pro-surfactant C (Millipore, AB3786), NSE (DAKO, IS612), and HER2/Neu (DAKO, A0458) for a reaction. Antigen retrieval was performed using 10 mM sodium citrate (pH 6.0) twice at a temperature of 95° C. for 10 minutes each, and endogenous peroxidase activity was blocked with 3% […] for 10 min. Then, the slides were dehydrated following a standard procedure and sealed with cover glass using mounting solution. TUNEL reaction was done as described in the manual for In Situ Cell Death Detection Kit, POD (Hoffmann-La Roche Ltd, Basel, Swizerland).
To evaluate tumor incidence, lung tissues of each mouse was fixed and embedded in paraffin. 5 sections from each mouse were examined by 3 independent investigator, who counted tumor. In addition, tumor area was calculated by tumor occupied area in total lung area using photoshop software.

[5] = tested on: H446 xenograft
Experimental: DK (5 month-old, N=6) mice were administered with carrier, SLCB050 (5 or 10 mg/kg), Adriamycin (1, 2.5, or 5 mg/kg), and a combination of SLCB050 and Adriamycin by intraperitoneal (i.p.) injection. After termination of the experiment of each group, mice were dissected and isolated lung tissues. For xenograft, 1×10^7 H446 cells (ATCC) were seeded in nude ice. After 4 weeks, tumor bearing mice were injected with Adriamycin, […], or a combination thereof for 6 weeks. Every weeks, tumor volume and body weight were measured.

[6] = tested on: H69 and H322 cells; assay: Sensitivity of lung cancer cell lines to combinational treatment with Adriamycin and SLCB050; type: cell-based, human; settings: combinational treatment with Adriamycin, FIG. 8C
Experimental: By MTT assay, anticancer effects were confirmed based on viability of tumor cells. That is, cells were incubated in 0.5 mg/ml of MTT solution for 4 hours at a temperature of 37° C. for a reaction, and then, formazen products formed therefrom were dissolved in dimethyl sulfoxide (DMSO). Then, absorbance thereof was measured at 540 nm by using a spectrometer.

[7] = tested on: H128 cells (SCLC cell line); assay: Soft agar colony formation assay in H128 cells; type: cell-based, human; settings: 48 hours, trypan blue staining, FIG. 6
Experimental: H128 cells which are SCLC cell lines were seeded in soft agar plates and allowed to react with SLCB050 for 48 hours, and then, the cells were examined after staining the cells with trypan blue.

[8] = biological target: T3, p53-p14/ARF interaction (Homo sapiens, UniProt P04637+Q8N726); assay: GST pull-down assay, selectivity: p53-p14/ARF interaction; type: binding; settings: FIG. 3D, 3E
T3 construct: a p14/ARF fragment (full-length) was ligated into EcoRI and Hind II sites of pGEX-TEV vector; made in house; host or cells: E. coli BL21(DE3) for GST-p14/ARF
T3 sequence (Q8N726 whole entry, the tested form may be a part): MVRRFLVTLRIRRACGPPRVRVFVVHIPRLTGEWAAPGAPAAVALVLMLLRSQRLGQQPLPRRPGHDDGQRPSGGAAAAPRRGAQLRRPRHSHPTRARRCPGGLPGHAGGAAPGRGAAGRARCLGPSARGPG
T3 sequence (P04637 whole entry, the tested form may be a part): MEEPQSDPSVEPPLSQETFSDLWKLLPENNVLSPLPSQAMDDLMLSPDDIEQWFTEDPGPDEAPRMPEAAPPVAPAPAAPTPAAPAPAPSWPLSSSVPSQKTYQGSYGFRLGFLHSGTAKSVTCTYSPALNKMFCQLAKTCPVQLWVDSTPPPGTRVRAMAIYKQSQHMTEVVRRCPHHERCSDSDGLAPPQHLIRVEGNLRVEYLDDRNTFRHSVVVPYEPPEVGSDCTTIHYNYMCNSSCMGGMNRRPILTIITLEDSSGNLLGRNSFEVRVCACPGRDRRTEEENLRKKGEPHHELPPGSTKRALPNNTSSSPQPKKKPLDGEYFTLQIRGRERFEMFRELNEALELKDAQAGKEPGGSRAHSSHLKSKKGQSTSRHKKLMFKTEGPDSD
From the text: as §3, §2

CC1(C)Oc2cc3oc(=O)ccc3cc2C[C@@H]1OC(=O)/C=C/c1ccco1 [SLCB050, (7S)-(+)-3-(2-Furanyl)-acrylic acid, 8,8-dimethyl-2-oxo-6,7-dihydro-2H,8H-pyrano[3,2-g]chromen-7-yl-ester]
interaction of p14/ARF with DX2 in cells [1]: inhibited the interaction of p14/ARF with DX2 in cells
binding between DX2 and AIMP2 [2]: binding between DX2 and AIMP2 was reduced
inhibition of p53-AIMP2 or DX2 binding [3]: not on p53-AIMP2 or DX2 binding
weight loss, combination ([4]; DK mice, SLCB050 10 mg/kg and Adriamycin 2.5 mg/kg): without significant weight loss
tumor progression, combination ([4]; DK mice, SLCB050 10 mg/kg and Adriamycin 2.5 mg/kg, i.p., FIG. 10B, 10C): significantly suppressed tumor progression; also recorded: induced tumor regression
DX2 level in vivo (western blot) ([4]; DK mice, SLCB050 treatment, FIG. 12A): reduction of DX2
tumor volumes, combination ([4]; DK mice, combinational treatment with Adriamycin and SLCB050, FIG. 10C): reduced tumor volumes
SCLC regions in lung tissue (H-E staining), combination ([4]; DK mice, combinational treatment with Adriamycin and SLCB050, FIG. 11): more obviously erased
apoptotic tumor cells (TUNEL staining) ([4]; lung tissues of DK mice treated with Adriamycin and SLCB050 in combination, FIG. 12B, 12C): obviously increased apoptosis tumer cells
tumor growth, combination ([5]; SLCB050 10 mg/kg with low dose Adriamycin 2.5 mg/kg, FIG. 9B): more obvious anticancer effect; also recorded: obviously suppressed tumor growth
tumor volume, SLCB050 alone ([5]; SLCB050 10 mg/kg, three times/week, FIG. 9B): moderately suppressed
response of H446 xenograft model ([5]; single agents, FIG. 9A): partially responded
sensitivity to Adriamycin in SCLC cell line H69 [6]: sensitivity to Adriamycin improved
sensitivity to Adriamycin in p14/ARF-deficient H322 cells [6]: did not show improved sensitivity
number of colonies / H128 cell growth in soft agar [7]: completely suppressed the H128 cell growth; also recorded: reduced the number of colonies in a dose-dependent manner
effect on interaction of p53-p14/ARF [8]: did not affect the interaction of p53-p14/ARF
